Active and inactive are the calls of the source.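 How the source made its calls: active means malaria parasite growth inhibition of at least 50% at 10 µM in any single replicate well; inactive means under 50% inhibition in every replicate.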
These compounds were tested on P. falciparum 3D7 in RBCs, 3H-hypoxanthine incorporation, 48 h (assay: blood-stage malaria parasite growth inhibition – cell-based, 3H-hypoxanthine radiolabel, RBCs, Set 2, P. falciparum M17LAP inhibitor project, late-stage follow-up (AID 743274)). Conditions: at 10 µM; hits give high values.
In the case of `CCCCOc1cccc(CC(=O)OC)c1`, the inhibition is reported as 3% (inactive).
`N[C@@H](Cc1c[nH]c2ccccc12)C(=O)NO` was tested, and the inhibition was 2.5% (inactive).
`CCCCOc1ccc(CC(=O)N(C)O)cc1` was tested, and the inhibition was 58%.
Work on `COc1ccc(CC(=O)NO)cc1` yielded an inhibition of 50%.
Compound `O=C(NO)c1ccc2ccccc2c1` has an inhibition of 53.5%.
For `COc1ccc(OCCC(=O)NO)cc1`, the inhibition was 9% (inactive).
`CCCCCCCCCC(=O)NO` gave an inhibition of 53%.
`O=C(Cc1ccc2c(c1)CCCC2)NO` showed an inhibition of 82.5%.
`NC(N)=NCCC[C@H](N)C(=O)NO` was tested, and the inhibition was 0% (inactive).
With `CCCCOc1ccc(C(C)(C)C(=O)NO)cc1` the inhibition was 12% (inactive).
With `CCCCOc1ccc(CNc2c(N(O)Cc3ccccc3)c(=O)c2=O)cc1` the inhibition was 0% (inactive).
With `CCCCOc1ccc(CC(=O)O)cc1` the inhibition was 0% (inactive).
With `O=C(Cc1ccc2ccccc2c1)NO` the inhibition was 52%.
`CCCCOc1ccc(CN(O)C(=O)c2ccccc2)cc1` showed an inhibition of 59.5%.
`O=C(NO)c1cccc2ccccc12` was tested, and the inhibition was 0% (inactive).
`O=C(Cc1ccc(OCc2ccccc2)cc1)NO` was tested, and the inhibition was 93%.
For `CCCCOc1ccc(C(C)C(=O)OC)cc1` (stereo unspecified), the inhibition was 4.5% (inactive).
With `CCCCOc1ccc(CN(O)C(C)=O)cc1` the inhibition was 19.5% (inactive).
`CCC(C)Oc1ccc(CC(=O)NO)cc1` (stereo unspecified) showed an inhibition of 71%.
`Cc1ccc(CC(=O)NO)cc1` gave an inhibition of 53%.
With `CCCCOc1ccc(CCC(=O)NO)cc1` the inhibition was 26% (inactive).
With `CC(C)COc1ccc(CC(=O)NO)cc1` the inhibition was 69%.
For `CCCCOc1ccc(CNc2c(N(C)O)c(=O)c2=O)cc1`, the inhibition was 63%.
`O=C(Cc1cccc2ccccc12)NO` was tested, and the inhibition was 14.5% (inactive).
With `CCCCOc1cccc(CC(=O)NO)c1` the inhibition was 32.5% (inactive).
In the case of `CCCCc1ccc(CC(=O)NO)cc1`, the inhibition is reported as 84.5%.
For `CN(O)C(=O)Cc1ccc(OCc2ccccc2)cc1`, the inhibition was 15.5% (inactive).
`CCCCOc1ccc(C(=O)NO)cc1` was tested, and the inhibition was 73.5%.
For `CCCCOc1ccc(C(C)C(=O)O)cc1` (stereo unspecified), the inhibition was 0% (inactive).
For `COc1ccc(CCCC(=O)NO)cc1`, the inhibition was 15.5% (inactive).
`CCCCOc1ccc(C(C)C(=O)NO)cc1` (stereo unspecified) was tested, and the inhibition was 59.5%.
For `CC(C)C[C@H](N)C(=O)NO`, the inhibition was 1% (inactive).
With `O=C(Cc1ccc(Oc2ccccc2)cc1)NO` the inhibition was 38.5%.
`CC(C)(C(=O)NO)c1ccccc1` was tested, and the inhibition was 0% (inactive).
`CCOc1ccc(CC(=O)NO)cc1` showed an inhibition of 70%.
`CCCOc1ccc(CC(=O)NO)cc1` gave an inhibition of 74%.

From PubChem BioAssay AID743274 (The Scripps Research Institute Molecular Screening Center, 2014)
